We go through 31 molecules from PubChem BioAssay (NCI).

What all share (assay): growth of human tumour cells (NCI), 48 h
Test [1] has as its system HCT-116 colon.
Test [2] has as its system SK-MEL-2 melanoma.
Test [3] relates to SK-MEL-28 melanoma.
In test [4] the test system is SK-MEL-5 melanoma.
Test [5] has as its system ACHN renal.
For test [6], the system named is NCI-H23 lung.
For test [7], the system named is IGROV1 ovarian.
Test [8] relates to TK-10 renal.
Test [9] has as its system MDA-MB-435.

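Exposure lasted 48 hours, with cells grown in 96-well plates and compounds tested at five concentrations. GI50 marks 50% less growth. The concentration for full growth arrest is given as TGI.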

For the molecule `COc1cc(Cc2cc(OC)c(OC)c(OC)c2)ccc1O`, the TGI is greater than 100 µM in test [1]; 64.5 µM in test [2]; greater than 100 µM in [3]; greater than 100 µM in test [4]; greater than 100 µM in [5]; greater than 100 µM in test [6]. The TGI in [7] and in [8] was greater than 100 µM in each case.
As to `CSc1nc(NC2OC(COC(C)=O)C(OC(C)=O)C(OC(C)=O)C2OC(C)=O)c2c(OC(C)=O)c(C)c(=O)oc2n1` (stereo not drawn), the TGI in test [1], in test [2], in test [4], in test [5], in test [6] and in test [7] was greater than 100 µM in each case. This molecule yielded a TGI in test [8] greater than 100 µM.
With `O=C1C2=C(CC3C(C2)C3(Br)Br)C(=O)C2=C1CC1C(C2)C1(Br)Br` (stereo not drawn), the TGI in [1], in [2], in [3], in test [4], in test [5] and in test [6] was greater than 100 µM in each case. In addition, the TGI in test [7] and in test [8] was greater than 100 µM each time.
`Cc1cccc(C(C)(C)C)c1NC(=O)CCc1n[nH]c(=S)o1`: the TGI was 33.9 µM in test [1]; greater than 100 µM in test [3]; greater than 100 µM in [4]; greater than 100 µM in test [5]; greater than 100 µM in test [6]; greater than 100 µM in test [7]. This molecule registered a TGI in [8] greater than 100 µM.
`COC(=O)C(=O)C(C(=O)C(=O)Nc1ccc(C)cc1C)c1nc2ccccc2[nH]c1=O` (stereo not drawn): the TGI in test [1], in test [2], in [3], in test [4], in test [5] and in [6] was greater than 100 µM each time. In addition, the TGI in test [7] and in [8] was greater than 100 µM throughout.
As for `COc1ccc(C(=O)O)c(Cc2cccc3ccccc23)c1`, the TGI in [1], in test [2], in [3], in test [4], in test [5] and in test [6] was greater than 100 µM each time. Besides, the TGI in test [7] and in [8] was greater than 100 µM in each case.
With `NC1C2(CCCCCC2)NC(=O)C12CCCCCC2` (stereo not drawn), the TGI in test [1], in test [2], in test [3], in [4], in [5] and in test [6] was greater than 100 µM each time. In addition, the TGI in [7] and in test [8] was greater than 100 µM throughout.
Regarding `CCC(C)(O)c1cn(-c2cccc(S(=O)(=O)O)c2)nn1` (stereo not drawn), the TGI in test [1], in test [2], in test [3], in test [4], in [5] and in [6] was greater than 100 µM throughout. Besides, the TGI in [7] and in [8] was greater than 100 µM each time.
As for `N#Cc1cnsc1`, the TGI in test [1], in test [2], in test [3], in test [4], in test [5] and in [6] was greater than 100 µM throughout. Moreover, the TGI in test [7] and in [8] was greater than 100 µM each time.
`Nc1c(-c2ccc(Br)cc2)[n+]([O-])c2ccccc2[n+]1[O-]`: the TGI in [1], in test [2], in test [3], in [4], in test [5] and in test [6] was greater than 100 µM each time. Besides, in test [7], the TGI was greater than 100 µM.
In the case of `NCCCNCCSSCCCCS(=O)O`, the TGI was 70.2 µM in [1]; 55.2 µM in test [3]; 32.7 µM in test [4]; greater than 100 µM in test [5]; 43.5 µM in test [6]; greater than 100 µM in test [7]. In test [8], this molecule showed a TGI greater than 100 µM.
In the case of `Cc1ccc(NC(=O)C2C(=O)N(c3ccc(C)c(C)c3)C(=O)/C2=N/O)cc1C` (stereo not drawn), the TGI in test [1], in [2], in test [3], in [4], in test [5] and in [6] was greater than 100 µM in each case. For the same molecule, the TGI in test [7] and in test [8] was greater than 100 µM each time.
For `CC(C)=[CH][Sb]([Br])([CH]=C(C)C)([CH]=C(C)C)[CH]=C(C)C`, the GI50 in test [1] is 13.9 µM; in test [2], 15.4 µM; in test [3] it was 11.3 µM; in [4] it was 3.82 µM; in test [5] it was 28.8 µM; in test [6], 6.12 µM. Also, the GI50 in test [7] is 5.57 µM; in [8] it was 34.9 µM. The TGI in [1] was 60.4 µM; in [2], greater than 100 µM; in test [3], greater than 100 µM; in [4], 24.3 µM; in [5], greater than 100 µM; in test [6], 46.7 µM. The figures for the TGI in test [7] and in test [8] were 66.3 µM and greater than 100 µM, respectively.
Consider `O=S(O)CCCCSSCCCCSSCCCCS(=O)O`, for which the TGI in test [1] is greater than 100 µM; in test [2], greater than 100 µM; in [3] it was greater than 100 µM; in test [4] it was 24.3 µM; in test [5], greater than 100 µM; in test [6] it was greater than 100 µM. The figures for the TGI in [7] and in test [8] were greater than 100 µM and 91.4 µM, respectively.
Consider `C=C1C(=O)O[C@H]2[C@H]1CC/C(COC(=O)/C=C\C(=O)NCc1ccc(Cn3c(=O)sn(-c4ccc(C#N)cc4)c3=O)cc1)=C\CC[C@@]1(C)O[C@@H]21`, for which the GI50 in [1] was 0.218 µM; in test [2], 0.935 µM; in test [9] it was 0.744 µM; in test [3], 0.857 µM; in test [4], 0.842 µM; in test [5], 0.545 µM. Besides, the GI50 was 0.861 µM in test [6], 0.592 µM in test [7] and 0.888 µM in test [8]. Also, the TGI came out at 0.956 µM in test [1]; 2.03 µM in test [2]; 1.5 µM in [9]; 1.61 µM in [3]; 1.55 µM in [4]; 1.14 µM in [5]. Moreover, the TGI in [6] is 1.81 µM; in test [7], 1.3 µM; in [8], 1.61 µM.
As to `CCOC(=O)NC(=O)c1cn(CCCOC(=O)NCCCCCCNC(=O)OCCCn2c(=O)c(C(=O)NC(=O)OCC)cn(C)c2=O)c(=O)n(C)c1=O`, the TGI in test [1], in test [2], in test [3], in test [5], in test [6] and in [7] was greater than 100 µM in each case. The same molecule registered a TGI in [8] greater than 100 µM.
Consider `Cc1ccc(C(=O)/C=C/c2ccccc2O)c(C)c1`, for which the TGI in [1], in test [2], in [3], in test [4], in [5] and in test [6] was greater than 100 µM throughout. The TGI in [7] and in test [8] was greater than 100 µM throughout.
For the molecule `COC(=O)CSc1n[nH]c(-c2ccc(O)c([N+](=O)[O-])c2)n1`, the TGI in test [1], in [2], in test [3], in test [4], in test [5] and in [6] was greater than 100 µM each time. Moreover, the TGI in test [7] and in test [8] was greater than 100 µM in each case.
Consider `Cc1cc(NS(=O)(=O)c2ccc(NC(=O)c3cccc4c(=O)c5ccccc5[nH]c34)cc2)no1`, for which the TGI in test [1], in test [2], in test [3], in test [4], in test [5] and in [6] was greater than 100 µM throughout. For the same molecule, the TGI in test [7] and in test [8] was greater than 100 µM in each case.
In the case of `CSc1ccc(/C=C2/C[N+](C)(C)C/C(=C/c3ccc(SC)cc3)C2=O)cc1`, the TGI in test [2] was 36.2 µM; in [3], 20.9 µM; in [5], greater than 100 µM; in test [8], greater than 100 µM.
As to `COc1cc(-c2c(C#N)c(N)n3c(nc4ccccc43)c2C#N)cc(Br)c1OC`, the GI50 was 4.77 µM in test [1]; 47.5 µM in test [2]; greater than 100 µM in test [9]; greater than 100 µM in test [3]; 3.3 µM in [4]; greater than 100 µM in test [5]. The GI50 in [7] was 97.5 µM. The TGI in [1], in [2], in test [9], in test [3], in test [4] and in test [5] was greater than 100 µM each time. In [7], this molecule yielded a TGI greater than 100 µM.
Take `CCc1cccc(C)c1NC(C)=O`: the TGI in test [1], in test [2], in test [3], in test [4], in [5] and in test [6] was greater than 100 µM in each case. In addition, the TGI in test [7] and in test [8] was greater than 100 µM throughout.
Turning to `COc1ccc(OC)c(/C=C/NC=O)c1`, the TGI in test [1], in [2], in test [3], in [4], in [5] and in test [6] was greater than 100 µM each time. For the same molecule, the TGI in [7] and in test [8] was greater than 100 µM in each case.
Consider `CCN(CC)C(=O)C/C(C)=N/NC(=O)c1ccncc1`, for which the TGI in test [1], in [2], in test [3], in [4], in test [6] and in test [7] was greater than 100 µM each time. Also, the TGI in test [8] is greater than 100 µM.
`Cc1ccc(N=NC(C(=O)c2ccccc2)C(=O)c2ccccc2)cc1`: the TGI in test [1] is 65.6 µM; in [2], 55.4 µM; in test [3], greater than 100 µM; in test [4], 55.1 µM; in test [5] it was greater than 100 µM; in [6], 63.2 µM. Moreover, the TGI in test [7] and in [8] was greater than 100 µM each time.
Consider `COC(=O)C(=O)C(C(=O)C=C(C)C)C(=O)C(=O)Nc1ccc(Cl)cc1C` (stereo not drawn), for which the TGI in test [1], in test [2], in [3], in test [4], in [5] and in test [6] was greater than 100 µM each time. In addition, the TGI in test [7] and in test [8] was greater than 100 µM in each case.
Turning to `N#CCCN(CCC#N)c1ccc(/C=C2\N=C(CN3C(=O)c4ccccc4C3=O)OC2=O)cc1`, the TGI in test [1], in test [2], in [3], in test [4], in test [5] and in test [7] was greater than 100 µM throughout.
Turning to `CC(C)=CC(=O)N1CCN(C(=O)C=C(C)C)CC1`, the TGI in test [1], in [3], in test [4], in test [5], in test [6] and in test [7] was greater than 100 µM in each case. The TGI in test [8] was greater than 100 µM.
Consider `CN(C)C(=S)/N=c1\ss/c(=N\C(=S)N(C)C)n1-c1ccc2c(c1)OCO2`, for which the TGI in [1], in test [2], in [3], in [4], in test [5] and in test [6] was greater than 100 µM in each case. Further, the TGI in test [7] and in test [8] was greater than 100 µM each time.
Consider `CC(=O)SCCC1c2[nH]c3ccccc3c2CCN1O` (stereo not drawn), for which the TGI in test [2], in test [3], in test [4], in test [5], in [6] and in test [7] was greater than 100 µM in each case. This molecule yielded a TGI in test [8] greater than 100 µM.
`COC(=O)C1=C(c2ccc3c(c2)OCO3)O[C@H](c2ccc3c(c2)OCO3)[C@H]1COC(C)=O`: the TGI in test [1] is greater than 100 µM; in test [2], greater than 100 µM; in [3], greater than 100 µM; in [4] it was 75.2 µM; in [5] it was greater than 100 µM; in test [6], greater than 100 µM. In addition, the TGI in [7] and in test [8] was greater than 100 µM each time.
